# Laboratory results as given in paper PMC5650142, “GPR40 partial agonists and AgoPAMs: Differentiating effects on glucose and hormonal secretions in the rodent” (PLoS ONE, 2017).
# Several values for one entry are separate records, joined by “and”; a condition that tells them apart may be missing. Identical values can stand only once.
# Legend:
# [1] = system: wild type C57BL/6 and GLP-1R-/- mice; test: Mouse glucose tolerance test (IPGTT, wild type and GLP-1R-/- mice); format: in vivo; set-up: Plasma Insulin Net AUC: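 insulin AUC integrated from 0 to 60 min after dextrose challenge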; Blood Glucose Net AUC: unit not given here; settings: for Blood Glucose / Plasma Insulin: 10 mpk, 10 mg/kg; for Blood Glucose Net AUC / Plasma Insulin Net AUC: @ 10, individual animals
# Method: Wild type C57BL/6 mice and GLP-1R^-/- mice were fed a high fat diet (D12492i, Research Diets) for 6 weeks prior to GTT. On the day of study, mice were fasted at 1 h post lights on, and body weights were measured. […] Mice were then dosed PO at a volume of 10 ml/kg with vehicle (0.5% methylcellulose), MK-2305 (a GPR40 partial agonist described in Hauge et al) at 10 mg/kg, or AP1 at 30 mg/kg. Dosages of MK-2305 and AP1 were administered at maximal efficacious doses as determined by acute dose titrations with efficacy determined via reduction in glucose during an IPGTT (data not shown). […] Blood glucose was measured again (time = 0) just prior to an intraperitoneal (IP) dextrose challenge of 1 g/kg at 10 ml/kg dose volume (Dextrose, Hospira Inc., Lake Forrest IL). A subset of vehicle treated mice was injected with 0.9% NaCl saline to serve as negative control. Blood glucose was then measured at 10, 20, 40, 60, and 120 min after challenge. To capture insulin secretion during the IPGTT, blood via tail vein was collected at t = - 60, 0, 10, 20, 40, 60 min post challenge.
# Net AUC was calculated by subtracting the average AUC of the saline group from each groups’ total AUC.
# (§1) Blood for insulin, glucagon, GLP-1, GIP, and PYY measurements was collected into K2EDTA Microtainer tubes (BD, Franklin Lakes, NJ) pre-treated with DPP4 inhibitor (Millipore, Billerica, MA) and cOmplete™ Protease Inhibitor Cocktail Tablets (Roche Diagnostics, Indianapolis, IN). Tubes were centrifuged for 10 minutes at 5000 RPM, and plasma was aliquotted for analysis. Plasma insulin levels were measured via EIA (Mesoscale Discovery ELISA Kit, Gaithersburg MD). Rat plasma total GLP-1 was measured using Total GLP-1 (ver.2) Assay Kit (Cat#: K150JVC). The measurement of active GLP-1 was carried out in a similar manner as that described for total GLP-1 assay with the exception that MSD Active GLP-1 (ver. 2) assay kit (Cat# K150JWC) was used. Rat plasma glucagon was measured using an in-house glucagon assay developed as a MSD format sandwich immunoassay (Merck & Co., Inc., MRL, Kenilworth, NJ USA). The antibody specificity was cross validated via mass- spec using procedures described in Lee et al. Briefly, MSD Streptavidin Gold plates were coated with 2 μg/ml biotin mouse monoclonal antibody generated to glucagon. Test samples were added to the plates and a separate Sulfo- tagged monoclonal antibody was used to detect the captured glucagon protein (2 μg/ml). The ELISA was carried out in the standard reagents in the MSD format. The plate was read on the SECTOR Imager 6000 Reader. Metabolic hormones GIP (Gastric Inhibitory Polypeptide) and PYY (Peptide YY) were measured in rat plasma using the Rat Metabolic Magnetic Bead Panel (EMD Millipore, Billerica, MA). The assay was performed according to manufacturer protocol.
# [2] = system: wild type and GPR40-/- mice; test: Mouse incretin measurements (plasma glucagon, wild type and GPR40-/- mice); format: in vivo; settings: for Plasma Glucagon: @ 30, individual animals (Fig 6A)
# Method: Wild type and GPR40-/- mice were weighed the day prior to dosing. Food was removed from mice at lights on. 2 hours later mice were dosed via oral gavage (PO) at a volume of 10 ml/kg with vehicle (0.5% methylcellulose), AP1 at 30 mg/kg, or AP3 at 30 mg/kg. At 60 minutes post dose, mice were euthanized via CO2 asphyxiation. Blood was collected via cardiac puncture.
# as §1
# [3] = GLP-1R-/- and wild type mice, MK-2305 10 mg/kg, AP1 30 mg/kg PO
# [4] = KO mice, Time 0, individual animals
# [5] = KO mice, Time 10, individual animals
# [6] = KO mice, Time 20, individual animals
# [7] = KO mice, Time 40, individual animals
# [8] = KO mice, Time 60, individual animals
# [9] = KO mice, Time -60, individual animals
# [10] = WT mice, Time 0, individual animals
# [11] = WT mice, Time 10, individual animals
# [12] = WT mice, Time 20, individual animals
# [13] = WT mice, Time 60, individual animals
# [14] = WT mice, Time -60, individual animals
compound,measurement,setting,value
"O=C1NC(=O)C(C2CCOc3cc(Oc4ccc(C(F)(F)F)cc4Cl)ccc32)S1 (stereo not drawn) [MK-2305, reference compound]",blood glucose excursion during IPGTT,[1]; [3],reduced
same,insulin following dextrose challenge (IPGTT),[1]; [3],no effect
same,Blood Glucose,[1]; [4],151 mg/dL and 150 mg/dL and 186 mg/dL and 194 mg/dL and 152 mg/dL and 171 mg/dL and 161 mg/dL
same,Plasma Insulin,[1]; [4],0.848 ng/mL and 0.42 ng/mL and 0.528 ng/mL and 1.053 ng/mL and 0.383 ng/mL and 0.356 ng/mL and 0.379 ng/mL
same,Blood Glucose,[1]; [5],359 mg/dL and 371 mg/dL and 443 mg/dL and 389 mg/dL and 416 mg/dL and 530 mg/dL
same,Plasma Insulin,[1]; [5],1.175 ng/mL and 0.368 ng/mL and 0.464 ng/mL and 0.199 ng/mL and 0.51 ng/mL and 0.24 ng/mL and 0.661 ng/mL
same,Blood Glucose,[1]; [6],361 mg/dL and 257 mg/dL and 455 mg/dL and 411 mg/dL and 438 mg/dL and 432 mg/dL and 566 mg/dL
same,Plasma Insulin,[1]; [6],1.151 ng/mL and 0.543 ng/mL and 0.441 ng/mL and 1.015 ng/mL and 0.58 ng/mL and 0.405 ng/mL and 0.254 ng/mL
same,Blood Glucose,[1]; [7],332 mg/dL and 292 mg/dL and 386 mg/dL
same,Plasma Insulin,[1]; [7],0.591 ng/mL and 0.442 ng/mL and 0.194 ng/mL and 0.983 ng/mL and 0.199 ng/mL and 0.278 ng/mL and 0.213 ng/mL
same,Blood Glucose,[1]; [8],346 mg/dL and 269 mg/dL and 435 mg/dL and 335 mg/dL and 332 mg/dL and 352 mg/dL and 512 mg/dL
same,Plasma Insulin,[1]; [8],0.58 ng/mL and 0.57 ng/mL and 0.264 ng/mL and 0.784 ng/mL and 0.335 ng/mL and 0.275 ng/mL and 0.261 ng/mL
same,Blood Glucose,"[1]; KO mice, Time 120, individual animals",303 mg/dL and 186 mg/dL and 397 mg/dL and 270 mg/dL and 224 mg/dL and 260 mg/dL and 402 mg/dL
same,Blood Glucose,[1]; [9],180 mg/dL and 203 mg/dL and 200 mg/dL and 205 mg/dL and 188 mg/dL and 236 mg/dL and 197 mg/dL
same,Plasma Insulin,[1]; [9],0.786 ng/mL and 0.573 ng/mL and 0.295 ng/mL and 0.819 ng/mL and 0.47 ng/mL and 0.336 ng/mL and 0.379 ng/mL
same,Blood Glucose,"[1]; KO mice, Time -90, individual animals",165 mg/dL and 181 mg/dL and 160 mg/dL and 198 mg/dL and 154 mg/dL and 193 mg/dL and 185 mg/dL
same,Blood Glucose Net AUC,[1]; KO mice,26136 and 8611 and -3694 and 17776 and 10566 and 8161 and 9656
same,Plasma Insulin Net AUC,[1]; KO mice,-6.842 and 24.846 and 2.455 and -5.609 and 23.949 and -2.988 and -7.445
same,Blood Glucose,[1]; [10],173 mg/dl and 130 mg/dl (2×) and 172 mg/dl and 136 mg/dl and 151 mg/dl and 154 mg/dl
same,Plasma Insulin,[1]; [10],2.909 ng/mL and 1.344 ng/mL and 1.761 ng/mL and 0.655 ng/mL and 1.362 ng/mL and 1.244 ng/mL and 1.598 ng/mL
same,Blood Glucose,[1]; [11],300 mg/dL and 375 mg/dL and 416 mg/dL and 324 mg/dL and 318 mg/dL and 369 mg/dL and 438 mg/dL
same,Plasma Insulin,[1]; [11],1.538 ng/mL and 1.501 ng/mL and 2.253 ng/mL and 0.689 ng/mL and 0.787 ng/mL and 2.31 ng/mL and 1.19 ng/mL
same,Blood Glucose,[1]; [12],341 mg/dL and 386 mg/dL and 396 mg/dL and 278 mg/dL and 357 mg/dL and 365 mg/dL and 487 mg/dL
same,Plasma Insulin,[1]; [12],3.87 ng/mL and 1.373 ng/mL and 1.842 ng/mL and 0.672 ng/mL and 0.733 ng/mL and 1.031 ng/mL and 1.681 ng/mL
same,Plasma Insulin,"[1]; WT mice, Time 40, individual animals",3.585 ng/mL and 1.27 ng/mL and 1.204 ng/mL and 0.278 ng/mL and 1.824 ng/mL and 0.546 ng/mL and 1.72 ng/mL
same,Blood Glucose,[1]; [13],285 mg/dL and 328 mg/dL and 270 mg/dL and 195 mg/dL and 296 mg/dL and 260 mg/dL and 442 mg/dL
same,Plasma Insulin,[1]; [13],2.679 ng/mL and 1.626 ng/mL and 1.133 ng/mL and 0.252 ng/mL and 0.763 ng/mL and 0.592 ng/mL and 1.175 ng/mL
same,Blood Glucose,"[1]; WT mice, Time 120, individual animals",328 mg/dL and 300 mg/dL and 191 mg/dL and 160 mg/dL and 218 mg/dL and 205 mg/dL and 311 mg/dL
same,Blood Glucose,[1]; [14],177 mg/dl (2×) and 182 mg/dl and 162 mg/dl (2×) and 153 mg/dl and 176 mg/dl
same,Plasma Insulin,[1]; [14],2.201 ng/mL and 1.482 ng/mL and 1.004 ng/mL and 0.467 ng/mL and 0.749 ng/mL and 1.475 ng/mL and 2.049 ng/mL
same,Blood Glucose,"[1]; WT mice, Time -90, individual animals",182 mg/dL and 151 mg/dL and 166 mg/dL and 146 mg/dL and 175 mg/dL and 155 mg/dL and 164 mg/dL
same,Blood Glucose Net AUC,[1]; WT mice,22732 and 10047 and 12357 and 7637 and -1383 and 8197 and 6232
same,Plasma Insulin Net AUC,[1]; WT mice,17.355 and 112.532 and 10.066 and 20.452 and -45.584 and -4.157 and -12.281
C[C@H](C(=O)O)[C@H](c1ccc2c(c1)O[C@H](C1CN(Cc3cc(C(F)(F)F)ccc3C(F)(F)F)C1)CC2)C1CC1 [AP3],Plasma Glucagon,[2]; KO mice,20.25 pg/mL and 37.44 pg/mL and 95.8 pg/mL and 40.58 pg/mL and 53.81 pg/mL and 63.13 pg/mL and 24.92 pg/mL
same,circulating glucagon,"[2]; WT mice, 30 mg/kg PO, 1h post dose",increase
same,Plasma Glucagon,[2]; WT mice,137.56 pg/mL and 161.08 pg/mL and 195.45 pg/mL and 174.67 pg/mL and 101.1 pg/mL and 67.12 pg/mL and 161.82 pg/mL
